# Measurements: US8828985B2, “Carbamate and urea inhibitors of 11-beta-hydroxysteroid dehydrogenase 1” (Vitae Pharmaceuticals, Inc., priority 2008, dated 2014)
# pIC50: −log10 of the molar value.
# Columns and labels:
# human 11β-HSD1 [1] = biological target: T1, human 11β-HSD1 (Homo sapiens, UniProt P28845); conditions: at 100 nm
# human 11β-HSD1 [2] = biological target: T1, human 11β-HSD1; experiment: biochemical; conditions: Biological Test Example 2 IC50 Range, microsomes from CHO cells overexpressing human 11β-HSD1, SPA
# T1 sequence (P28845 whole entry): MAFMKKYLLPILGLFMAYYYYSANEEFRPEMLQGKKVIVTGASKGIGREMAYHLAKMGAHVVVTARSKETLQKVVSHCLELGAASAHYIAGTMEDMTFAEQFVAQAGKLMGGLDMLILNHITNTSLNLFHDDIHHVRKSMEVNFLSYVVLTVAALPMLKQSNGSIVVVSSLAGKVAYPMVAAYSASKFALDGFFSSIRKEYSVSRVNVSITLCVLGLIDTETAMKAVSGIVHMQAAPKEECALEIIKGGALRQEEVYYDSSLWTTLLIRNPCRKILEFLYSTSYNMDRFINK
structure (smiles),measurement,setting,value
"CC(C)(C)OC(=O)N1CCC2CN(C(=O)OC3C4CC5CC3CC(C(N)=O)(C5)C4)CC21 (single isomer, unassigned) [Example 23 Isomer 1, 1-tert-butyl 5-(cis-1-carbamoyl-4-adamantyl)hexahydropyrrolo[3,4-b]pyrrole-1,5-dicarboxylate]",Biological Test Example 2 Average % inhibition at 100 nm,human 11β-HSD1 [1],35.4%
same,pIC50,human 11β-HSD1 [2],< 7.00
"CC(C)(C)OC(=O)N1CCC2CN(C(=O)OC3C4CC5CC3CC(C(N)=O)(C5)C4)CC21 (single isomer, unassigned) [Example 23 Isomer 2, 1-tert-butyl 5-(trans-1-carbamoyl-4-adamantyl)hexahydropyrrolo[3,4-b]pyrrole-1,5-dicarboxylate]",Biological Test Example 2 Average % inhibition at 100 nm,human 11β-HSD1 [1],94.4%
same,pIC50,human 11β-HSD1 [2],> 7.00
"CC(C)OC(=O)N[C@@H]1CCN(C(=O)OC2C3CC4CC2CC(C(N)=O)(C4)C3)C1 (single isomer, unassigned) [Example 24 Isomer 1]",Biological Test Example 2 Average % inhibition at 100 nm,human 11β-HSD1 [1],2.0%
same,pIC50,human 11β-HSD1 [2],< 7.00
"CC(C)OC(=O)N[C@@H]1CCN(C(=O)OC2C3CC4CC2CC(C(N)=O)(C4)C3)C1 (single isomer, unassigned) [Example 24 Isomer 2]",Biological Test Example 2 Average % inhibition at 100 nm,human 11β-HSD1 [1],87.4%
same,pIC50,human 11β-HSD1 [2],> 7.00
"NC(=O)C12CC3CC(C1)C(OC(=O)N1CC[C@@H](NC(=O)OCc4ccccc4)C1)C(C3)C2 (single isomer, unassigned) [Example 25 Isomer 1]",Biological Test Example 2 Average % inhibition at 100 nm,human 11β-HSD1 [1],45.6%
same,pIC50,human 11β-HSD1 [2],< 7.00
"NC(=O)C12CC3CC(C1)C(OC(=O)N1CC[C@@H](NC(=O)OCc4ccccc4)C1)C(C3)C2 (single isomer, unassigned) [Example 25 Isomer 2]",Biological Test Example 2 Average % inhibition at 100 nm,human 11β-HSD1 [1],91.3%
same,pIC50,human 11β-HSD1 [2],> 7.00
"CC(C)(C)OC(=O)NC1(Cc2ccccc2)CCN(C(=O)OC2C3CC4CC2CC(C(N)=O)(C4)C3)C1 (single isomer, unassigned) [Example 29 Isomer 1, (cis-1-carbamoyl-4-adamantyl) 3-benzyl-3-(tert-butoxycarbonylamino)pyrrolidine-1-carboxylate]",Biological Test Example 2 Average % inhibition at 100 nm,human 11β-HSD1 [1],41.2%
same,pIC50,human 11β-HSD1 [2],< 7.00
"CC(C)(C)OC(=O)NC1(Cc2ccccc2)CCN(C(=O)OC2C3CC4CC2CC(C(N)=O)(C4)C3)C1 (single isomer, unassigned) [Example 29 Isomer 2, (trans-1-carbamoyl-4-adamantyl) 3-benzyl-3-(tert-butoxycarbonylamino)pyrrolidine-1-carboxylate]",Biological Test Example 2 Average % inhibition at 100 nm,human 11β-HSD1 [1],90.8%
same,pIC50,human 11β-HSD1 [2],> 7.00
"CC(C)(C)OC(=O)NC1(Cc2ccccc2)CCN(C(=O)OC2C3CC4CC2CC(C(N)=O)(C4)C3)C1 (single isomer, unassigned) [Example 29 Isomer 2.1, (trans-1-carbamoyl-4-adamantyl) 3-benzyl-3-(tert-butoxycarbonylamino)pyrrolidine-1-carboxylate]",Biological Test Example 2 Average % inhibition at 100 nm,human 11β-HSD1 [1],96.9%
same,pIC50,human 11β-HSD1 [2],> 7.00
"CC(C)(C)OC(=O)NC1(Cc2ccccc2)CCN(C(=O)OC2C3CC4CC2CC(C(N)=O)(C4)C3)C1 (single isomer, unassigned) [Example 29 Isomer 2.2, (trans-1-carbamoyl-4-adamantyl) 3-benzyl-3-(tert-butoxycarbonylamino)pyrrolidine-1-carboxylate]",Biological Test Example 2 Average % inhibition at 100 nm,human 11β-HSD1 [1],89.3%
same,pIC50,human 11β-HSD1 [2],> 7.00
"CC(C)(C)OC(=O)N1CCCC12CCN(C(=O)OC1C3CC4CC1CC(C(N)=O)(C4)C3)C2 (single isomer, unassigned) [Example 30 Isomer 1, 1-tert-butyl 7-(cis-1-carbamoyl-4-adamantyl) 1,7-diazaspiro[4.4]nonane-1,7-dicarboxylate]",Biological Test Example 2 Average % inhibition at 100 nm,human 11β-HSD1 [1],15.9%
same,pIC50,human 11β-HSD1 [2],< 7.00
"CC(C)(C)OC(=O)N1CCCC12CCN(C(=O)OC1C3CC4CC1CC(C(N)=O)(C4)C3)C2 (single isomer, unassigned) [Example 30 Isomer 2, 1-tert-butyl 7-(trans-1-carbamoyl-4-adamantyl) 1,7-diazaspiro[4.4]nonane-1,7-dicarboxylate]",Biological Test Example 2 Average % inhibition at 100 nm,human 11β-HSD1 [1],91.3%
same,pIC50,human 11β-HSD1 [2],> 7.00
